From patent publication US20260166159A1, “KRAS G12D DEGRADATION AGENT, AND PREPARATION METHOD AND USE THEREFOR” (LEADINGTAC PHARMACEUTICAL (SHAOXING) CO., LTD., priority 2022, published 2026)

Experiments:
Assay type in all cases: cell-based
[1] = biological target: T1, KRAS-G12D (Homo sapiens, UniProt P01116, G12D); test: KRAS-G12D degradation assay (Western Blot), Panc 04.03 cells; conditions: 24 h
T1 construct: endogenous in cells; host or cells: A-427 (ATCC), AGS, AsPc-1, Panc 04.03
Procedure: (§1) The degradation effects of the compounds on KRAS-G12D were investigated on KRAS G12D mutant human lung cancer cell A-427 (ATCC), KRAS G12D mutant human gastric cancer cell AGS, KRAS G12D mutant human metastatic pancreatic cancer cell AsPc-1, and KRAS G12D mutant human pancreatic adenocarcinoma cell Panc 04.03. The specific procedures were as follows: 0.95 mL of cells were seeded into each well of a 24-well cell culture plate to achieve a cell density of 5×10^5 cells/well; and the cell plate was incubated in an incubator at 37° C. with 5% CO2 overnight. Then 50 μL of the compound solution after dilution was added to each of the wells with the corresponding cells, so that the final concentration of the compound was in a range of 0.03-3000 nM. The final concentration of DMSO was 0.25%. After the compounds were added, the cell plate was incubated in the incubator at 37° C. with 5% CO2 for 24 h. The culture medium in the 24-well cell culture plate was removed, and the plate was washed twice with 1×PBS (KeyGEN). 120 μL of RIPA (strong) lysis buffer (Beyotime) supplemented with 1 mM phenylmethylsulfonyl fluoride, a protease inhibitor mixture (Beyotime), and a protease phosphatase inhibitor mixture (Beyotime) was added to lyse adherent A-427 cells at the bottom of the cell culture plate. After the plate was left to stand on ice for 30 min, the protein lysate in each well was transferred to a 1.5 mL centrifuge tube and centrifuged at 15000 g for 20 min at 4° C. The cell lysate supernatants after centrifugation were cryopreserved in a refrigerator at −80° C. for later use.
(§2) After the samples of the cell lysate supernatants that had been prepared were thawed from the refrigerator at −80° C., the total protein concentrations of the cell lysates were determined using a BCA protein quantification kit (Tiangen). The total protein concentrations of the samples were then adjusted to 0.5 μg/μL with PBS and 5×SDS-PAGE protein loading buffer (Beyotime), and the samples were incubated in a water bath at 100° C. for 15 min. The samples were then incubated in an ice bath for 5 min and centrifuged at 14000 g for 1 min at 4° C., and the supernatants were mixed well as loading samples for the Western Blot assay. The samples were loaded into wells of a 10% precast gel (KeyGEN) with a loading volume of 10 μL (total protein: 5 μg), a sufficient Tris-MOPS-SDS running buffer (Adamas) was added, and then electrophoresis was performed at a constant voltage of 120 V for 55 min. After the electrophoresis, the proteins on the gel were transferred to PVDF membranes at a constant current of 250 mA for 55 min. After the membrane transfer, the PVDF membranes were incubated in 1× Quick Block blocking buffer (Beyotime) at room temperature for 30 min. After the blocking, the PVDF membranes were separately incubated at 4° C. overnight with the KRAS antibody (Abcam) diluted in a ratio of 1:1000 and the […] antibody (Abcam) diluted in a ratio of 1:2000 in 5% BSA as the diluent, and then washed with 1×TBST buffer (2.4 g of Tris, 8.8 g of NaCl, 1.5 mL of Tween 20, with pH adjusted to 7.4, with the volume brought to 1 L) 3 times for 10 min/time. The membranes were incubated with a secondary antibody (Abcam) diluted in 5% BSA at room temperature for 2 h, and then washed with 1×TBST buffer 3 times for 10 min/time. Finally, the membranes were incubated with Clarity Western ECL Substrate (BIO-RAD) for 5 min for luminescence and color development, and a ChemiScope 6200 Touch chemiluminescence imaging system (Clinx) was used for color development and protein mapping. Gray value analysis of the protein maps was performed using the chemiluminescence analysis software (Clinx). The gray correction value for each sample was calculated using the formula: gray correction value=(gray value of target protein/gray value of corresponding internal reference)×10^3. Then degradation rates were calculated by comparison with the gray correction value of the control group. […]

[2] = biological target: T1, KRAS-G12D; test: KRAS-G12D degradation assay (Western Blot), AsPc-1 cells; conditions: for DC50: 24 h; for Dmax: ASPC1, 24 h
Outline: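 Western blotting of lysates (5 μg protein) quantified KRAS against a β-actin reference after 24 h exposure to compound at final 0.03–3000 nM in 0.25% DMSO. Cells were A-427, AGS, AsPc-1 or Panc 04.03, all KRAS G12D, at 5×10^5/well. Degradation versus control yielded DC50 and Dmax.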

[3] = biological target: T1, KRAS-G12D; test: KRAS-G12D degradation assay (Western Blot), AGS cells; conditions: 24 h
Procedure: as §1, §2

[4] = system: KRAS G12D mutant human pancreatic cancer cell Panc 04.03; test: 3D cell proliferation inhibition assay, Panc 04.03; conditions: 168 h, Panc 04.03, 7 days, CTG
Outline: (§3)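 Compound dilutions are added to low-adsorption wells, then cells at 5×10^2 cells/well. Final compound range is 10000–0.026 nM, with 0.2% DMSO. After 7 days at 37 °C with 5% CO2, CTG reagent is added and luminescence is read 60 min later. IC50 is fitted from inhibition relative to DMSO and medium controls.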

[5] = system: KRAS G12D mutant human metastatic pancreatic cancer cell AsPc-1; test: 3D cell proliferation inhibition assay, AsPc-1; conditions: ASPC1, 168 h, AsPc-1, 7 days, CTG
Outline: as §3

T1 sequence (P01116 1-188 isoform P01116-2 G12D): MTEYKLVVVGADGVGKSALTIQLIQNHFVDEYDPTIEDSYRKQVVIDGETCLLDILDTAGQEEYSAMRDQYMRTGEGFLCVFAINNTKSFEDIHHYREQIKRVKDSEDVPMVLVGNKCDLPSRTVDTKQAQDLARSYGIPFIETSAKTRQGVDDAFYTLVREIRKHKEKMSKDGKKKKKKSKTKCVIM

**Q.** With `C#Cc1c(F)ccc2cc(O)cc(-c3ncc4c(N5CC6CCC(C5)N6)nc(OCC5(CN6CCN(CC7CCC8(CC7)CCN(C(=O)c7ccc(Cl)c(N9CCC(=O)NC9=O)c7)CC8)CC6)CC5)nc4c3F)c12` [Example 6, 1-(5-(9-((4-((1-(((4-(3,8-diazabicyclo[3.2.1]octan-3-yl)-7-(8-ethynyl-7-fluoro-3-hydroxynaphthalen-1-yl)-8-fluoropyrido[4,3-d]pyrimidin-2-yl)oxy)methyl)cyclopropyl)methyl)piperazin-1-yl)methyl)-3-azaspiro[5.5]undecane-3-carbonyl)-2-chlorophenyl)dihydropyrimidine-2,4(1H,3H)-dione] as the compound, how does the DC50 [1] read?
**A.** 21.7 nM

**Q.** What about the Dmax [1] of the same compound?
**A.** 99.9%

**Q.** What about the DC50 [2] of the same compound?
**A.** 2.9 nM

**Q.** And the Dmax [2]?
**A.** 100%

**Q.** And the DC50 [3]?
**A.** 7.91 nM

**Q.** And the Dmax [3]?
**A.** 100%

**Q.** With `CCc1c(F)ccc2cc(O)cc(-c3ncc4c(N5CC6CCC(C5)N6)nc(OCC5(CN6CCN(CC7CCC8(CC7)CCN(C(=O)c7ccc(OC)c(N9CCC(=O)NC9=O)c7)CC8)CC6)CC5)nc4c3F)c12` [Example 15, 1-(5-(9-((4-((1-(((4-(3,8-diazabicyclo[3.2.1]octan-3-yl)-7-(8-ethyl-7-fluoro-3-hydroxynaphthalen-1-yl)-8-fluoropyrido[4,3-d]pyrimidin-2-yl)oxy)methyl)cyclopropyl)methyl)piperazin-1-yl)methyl)-3-azaspiro[5.5]undecane-3-carbonyl)-2-methoxyphenyl)dihydropyrimidine-2,4(1H,3H)-dione] as the compound, how does the IC50 ([4]; class symbols) read?
**A.** ≤ 50 nM

**Q.** What about the DC50 [1] of the same compound?
**A.** 16.6 nM

**Q.** And the Dmax [1]?
**A.** 98.9%

**Q.** And the DC50 [2]?
**A.** 13 nM

**Q.** And the Dmax [2]?
**A.** 99.3%

**Q.** What about the IC50 ([5]; class symbols) of the same compound?
**A.** ≤ 50 nM

**Q.** And the DC50 [3]?
**A.** 2.17 nM

**Q.** What about the Dmax [3] of the same compound?
**A.** 99.6%

**Q.** `CCc1cccc2cc(O)cc(-c3ncc4c(N5CC6CCC(C5)N6)nc(OCC5(CN6CCN(CC7CCC8(CC7)CCN(C(=O)c7ccc(OC)c(N9CCC(=O)NC9=O)c7)CC8)CC6)CC5)nc4c3F)c12` [Example 20, 1-(5-(9-((4-((1-(((4-(3,8-diazabicyclo[3.2.1]octan-3-yl)-7-(8-ethyl-3-hydroxynaphthalen-1-yl)-8-fluoropyrido[4,3-d]pyrimidin-2-yl)oxy)methyl)cyclopropyl)methyl)piperazin-1-yl)methyl)-3-azaspiro[5.5]undecane-3-carbonyl)-2-methoxyphenyl)dihydropyrimidine-2,4(1H,3H)-dione] was tested. Which IC50 ([4]; numeric values) did it give?
**A.** 10.5 nM

**Q.** And the DC50 [1]?
**A.** 15.1 nM

**Q.** And the Dmax [1]?
**A.** 100%

**Q.** And the DC50 [2]?
**A.** 0.57 nM

**Q.** And the Dmax [2]?
**A.** 100%

**Q.** And the IC50 ([5]; numeric values)?
**A.** 3.27 nM

**Q.** And the DC50 [3]?
**A.** 19.9 nM

**Q.** What about the Dmax [3] of the same compound?
**A.** 100%

**Q.** `C#Cc1c(F)ccc2cc(O)cc(-c3ncc4c(N5CC6CCC(C5)N6)nc(OCC5(CN6CCN(CCCCC7CCC8(CC7)CCN(C(=O)c7ccc(Cl)c(N9CCC(=O)NC9=O)c7)CC8)CC6)CC5)nc4c3F)c12` [Example 31, 1-(5-(9-(4-(4-((1-(((4-(3,8-diazabicyclo[3.2.1]octan-3-yl)-7-(8-ethynyl-7-fluoro-3-hydroxynaphthalen-1-yl)-8-fluoropyrido[4,3-d]pyrimidin-2-yl)oxy)methyl)cyclopropyl)methyl)piperazin-1-yl)butyl)-3-azaspiro[5.5]undecane-3-carbonyl)-2-chlorophenyl)dihydropyrimidine-2,4(1H,3H)-dione] was tested. Which IC50 ([4]; numeric values) did it give?
**A.** 22.2 nM

**Q.** What about the IC50 ([5]; numeric values) of the same compound?
**A.** 5.62 nM

**Q.** `C#Cc1c(F)ccc2cc(O)cc(-c3ccc4c(N5CC6CCC(C5)N6)nc(OCC5(CN6CCN(CC7CCC8(CC7)CCN(C(=O)c7ccc(C)c(N9CCC(=O)NC9=O)c7)CC8)CC6)CC5)nc4c3F)c12` [Example 42, 1-(5-(9-((4-((1-(((4-(3,8-diazabicyclo[3.2.1]octan-3-yl)-7-(8-ethynyl-7-fluoro-3-hydroxynaphthalen-1-yl)-8-fluoroquinazolin-2-yl)oxy)methyl)cyclopropyl)methyl)piperazin-1-yl)methyl)-3-azaspiro[5.5]undecane-3-carbonyl)-2-methylphenyl)dihydropyrimidine-2,4(1H,3H)-dione] was tested. Which IC50 ([4]; numeric values) did it give?
**A.** 8.41 nM

**Q.** What about the DC50 [1] of the same compound?
**A.** 7.46 nM

**Q.** And the Dmax [1]?
**A.** 100%

**Q.** And the DC50 [2]?
**A.** 0.22 nM

**Q.** And the Dmax [2]?
**A.** 100%

**Q.** What about the IC50 ([5]; numeric values) of the same compound?
**A.** 1.75 nM

**Q.** And the DC50 [3]?
**A.** 11.8 nM

**Q.** What about the Dmax [3] of the same compound?
**A.** 77.4%

**Q.** How did the IC50 ([4]; class symbols) turn out when `C#Cc1cccc2cc(O)cc(-c3ncc4c(N5CC6CCC(C5)N6)nc(OCC5(CN6CCN(CC7CCC8(CC7)CCN(C(=O)c7ccc(Cl)c(N9CCC(=O)NC9=O)c7)CC8)CC6)CC5)nc4c3F)c12` [Example 57, 1-(5-(9-((4-((1-(((4-(3,8-diazabicyclo[3.2.1]octan-3-yl)-7-(8-ethynyl-3-hydroxynaphthalen-1-yl)-8-fluoropyrido[4,3-d]pyrimidin-2-yl)oxy)methyl)cyclopropyl)methyl)piperazin-1-yl)methyl)-3-azaspiro [5.5]undecane-3-carbonyl)-2-chlorophenyl)dihydropyrimidine-2,4(1H,3H)-dione] was run?
**A.** ≤ 50 nM

**Q.** What about the DC50 [1] of the same compound?
**A.** 8.95 nM

**Q.** And the Dmax [1]?
**A.** 97.3%

**Q.** What about the DC50 [2] of the same compound?
**A.** 15 nM

**Q.** What about the Dmax [2] of the same compound?
**A.** 99.5%

**Q.** And the IC50 ([5]; class symbols)?
**A.** ≤ 50 nM

**Q.** And the DC50 [3]?
**A.** 0.69 nM

**Q.** And the Dmax [3]?
**A.** 94.2%

**Q.** With `C#Cc1c(F)ccc2cc(O)cc(-c3ncc4c(N5CC6CCC(C5)N6)nc(OCC(C)CN5CCN(CC6CCC7(CC6)CCN(C(=O)c6ccc(OC)c(N8CCC(=O)NC8=O)c6)CC7)CC5)nc4c3F)c12` (stereo not drawn) [Example 84, 1-(5-(9-((4-(3-((4-(3,8-diazabicyclo[3.2.1]octan-3-yl)-7-(8-ethynyl-7-fluoro-3-hydroxynaphthalen-1-yl)-8-fluoropyrido[4,3-d]pyrimidin-2-yl)oxy)-2-methylpropyl)piperazin-1-yl)methyl)-3-azaspiro[5.5]undecane-3-carbonyl)-2-methoxyphenyl)dihydropyrimidine-2,4(1H,3H)-dione] as the compound, how does the IC50 ([4]; numeric values) read?
**A.** 17 nM

**Q.** What about the DC50 [1] of the same compound?
**A.** 1.99 nM

**Q.** What about the Dmax [1] of the same compound?
**A.** 98.6%

**Q.** And the DC50 [2]?
**A.** 0.71 nM

**Q.** What about the Dmax [2] of the same compound?
**A.** 99.6%

**Q.** What about the IC50 ([5]; numeric values) of the same compound?
**A.** 2.58 nM

**Q.** What about the DC50 [3] of the same compound?
**A.** 3.82 nM

**Q.** And the Dmax [3]?
**A.** 92.2%
